Experiment [1] deals with T1, vascular smooth muscle (isolated thoracic aorta segments) (Rattus norvegicus, UniProt P22002).
T1 construct: The excised aorta segment was mounted in a tissue bath containing modified Krebs solution; from tissue; host or cells: thoracic aorta segments of male spontaneously hypertensive rats
The experiment in a line: Calcium antagonism in vascular smooth muscle (isolated thoracic aorta segments from male spontaneously hypertensive rats). It is filed as cell-based. To be noted: for Kb: read-out: pA2 (Ca++ Antagonism) (converted); for activity as vascular calcium antagonist (in words): isolated SHR aorta. The protocol:
Isolated thoracic aorta segments from the male spontaneously hypertensive rat were utilized in this test procedure.
The excised aorta segment was mounted in a tissue bath containing modified Krebs solution. After depolarization of the tissue with potassium (100 mM), calcium, in cumulative concentrations of 1×10^-3 M, 3.2×10^-3 M, and 1×10^-2 M was injected into the bath to produce vascular smooth muscle contraction. The developed tension (in grams) is measured and control dose-response values obtained. After one hour of incubation with a test compound at 1×10^-6 M concentration, the same doses of calcium ions were repeated. The log dose-response curves of the control and after treatment were analyzed by linear regression. The pA2 value was calculated as a measure of calcium antagonism of the test compound. See Van Rossum, J. M., Arch. Int. Pharmacodyn, 143, 299-330, 1963.
Calcium ions play an essential role in induction and maintenance of vascular smooth muscle contractility. In potassium depolarized vascular smooth muscle, calcium antagonists may block the entry of calcium ions into the cell or act by other mechanisms to inhibit the contractions induced by calcium ions. The inhibition of calcium ion - induced contraction of vascular smooth muscle is used to test compounds for vascular calcium antagonism. Cardiovascular diseases such as arrythmias, angina-pectoris, hypertension, and peripheral vascular disease may be casually related to abnormalities in cellular handling of calcium ions.

Experiment [2] relates to spontaneously hypertensive rats. Description: Anti-hypertensive activity in the unanesthetized spontaneously hypertensive rat (SHR) assay. The format is in vivo. The conditions noted are these: for minimal effective dose: Rattus norvegicus, read-out: Threshold Dose mg/kg intravenous; for minimal effective dose / Threshold Dose mg/kg intravenous: intravenous; for Oral Activity (Blood Pressure Lowering): intragastrically 50 mg/kg. The method, then: Male, unanesthetized spontaneously hypertensive rats, 11 to 16 weeks old were used in this test procedure. The compounds to be tested were administered intragastrically at a dose of 50 mg/kg or intraarterially/intravenously at a dose of 10 mg/kg.
Initial mean arterial blood pressure was measured directly via a previously implanted arterial catheter immediately before administration of the test compound. Blood pressure readings were made at 1, 2, 3, and 4 hours following administration of the test compound. […] Statistical comparisons were made using the paired Student's T test with two sided probability calculations.

Setting [3] is: 1×10^-6 M, one hour incubation, K+ (100 mM) depolarized SHR aorta.

Structures can show the parent of a compound that is named as a salt.

T1 sequence (P22002 whole entry): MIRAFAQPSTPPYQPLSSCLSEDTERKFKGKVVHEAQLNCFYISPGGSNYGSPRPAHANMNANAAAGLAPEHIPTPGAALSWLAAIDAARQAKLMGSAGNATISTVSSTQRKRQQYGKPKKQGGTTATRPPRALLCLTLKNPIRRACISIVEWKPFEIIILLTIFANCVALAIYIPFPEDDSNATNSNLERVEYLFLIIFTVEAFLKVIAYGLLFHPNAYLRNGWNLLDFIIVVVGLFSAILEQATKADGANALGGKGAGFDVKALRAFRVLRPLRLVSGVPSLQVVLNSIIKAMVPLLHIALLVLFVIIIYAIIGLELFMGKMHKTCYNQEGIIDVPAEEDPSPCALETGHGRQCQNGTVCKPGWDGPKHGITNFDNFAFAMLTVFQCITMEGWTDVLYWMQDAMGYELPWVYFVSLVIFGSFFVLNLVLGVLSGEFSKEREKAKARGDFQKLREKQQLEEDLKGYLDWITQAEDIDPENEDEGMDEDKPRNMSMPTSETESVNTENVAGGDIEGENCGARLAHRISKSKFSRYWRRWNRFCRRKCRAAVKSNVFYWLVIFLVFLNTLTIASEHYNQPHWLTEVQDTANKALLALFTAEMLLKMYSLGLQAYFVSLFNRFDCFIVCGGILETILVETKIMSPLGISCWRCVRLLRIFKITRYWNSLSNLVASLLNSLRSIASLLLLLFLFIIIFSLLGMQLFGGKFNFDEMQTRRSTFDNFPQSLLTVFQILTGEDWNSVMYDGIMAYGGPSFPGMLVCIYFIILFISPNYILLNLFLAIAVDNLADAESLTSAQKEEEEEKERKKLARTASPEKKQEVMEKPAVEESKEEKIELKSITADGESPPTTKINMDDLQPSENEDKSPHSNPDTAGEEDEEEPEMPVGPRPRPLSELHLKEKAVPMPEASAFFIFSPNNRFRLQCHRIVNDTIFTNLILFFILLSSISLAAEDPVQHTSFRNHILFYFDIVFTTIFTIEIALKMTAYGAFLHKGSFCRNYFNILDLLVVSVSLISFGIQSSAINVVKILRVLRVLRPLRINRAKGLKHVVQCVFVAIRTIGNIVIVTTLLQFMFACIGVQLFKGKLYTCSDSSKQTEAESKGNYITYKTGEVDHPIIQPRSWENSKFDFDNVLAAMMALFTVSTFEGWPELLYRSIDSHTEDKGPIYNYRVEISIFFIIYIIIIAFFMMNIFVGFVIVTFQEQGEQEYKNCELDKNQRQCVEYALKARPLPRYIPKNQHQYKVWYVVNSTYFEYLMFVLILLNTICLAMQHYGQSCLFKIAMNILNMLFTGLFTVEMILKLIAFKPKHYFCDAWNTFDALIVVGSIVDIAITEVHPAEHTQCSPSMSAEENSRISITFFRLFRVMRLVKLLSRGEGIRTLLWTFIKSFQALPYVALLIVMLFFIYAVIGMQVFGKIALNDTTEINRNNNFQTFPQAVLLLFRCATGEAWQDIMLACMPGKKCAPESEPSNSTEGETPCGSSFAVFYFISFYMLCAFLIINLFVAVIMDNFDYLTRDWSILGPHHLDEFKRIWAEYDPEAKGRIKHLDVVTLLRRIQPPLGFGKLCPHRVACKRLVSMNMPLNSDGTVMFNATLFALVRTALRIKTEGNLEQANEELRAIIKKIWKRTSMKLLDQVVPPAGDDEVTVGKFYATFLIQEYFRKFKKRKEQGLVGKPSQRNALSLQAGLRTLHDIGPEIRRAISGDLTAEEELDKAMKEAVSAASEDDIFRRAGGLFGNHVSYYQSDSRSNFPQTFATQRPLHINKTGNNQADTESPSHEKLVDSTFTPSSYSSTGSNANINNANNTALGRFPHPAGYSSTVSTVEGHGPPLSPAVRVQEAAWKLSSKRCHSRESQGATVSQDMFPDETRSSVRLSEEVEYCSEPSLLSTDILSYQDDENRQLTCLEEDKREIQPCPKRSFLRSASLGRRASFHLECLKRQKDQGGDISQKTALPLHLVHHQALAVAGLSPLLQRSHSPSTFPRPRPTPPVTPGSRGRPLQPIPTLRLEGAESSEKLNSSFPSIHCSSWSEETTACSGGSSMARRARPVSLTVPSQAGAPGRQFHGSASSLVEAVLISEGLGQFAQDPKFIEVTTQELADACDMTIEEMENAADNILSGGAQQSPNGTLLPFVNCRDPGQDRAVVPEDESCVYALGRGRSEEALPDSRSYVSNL

As to `COc1ccc(COc2ccc(CN3CCC(C(c4ccc(F)cc4)c4ccc(F)cc4)CC3)cc2)cc1` [Example 8], the Kb in experiment [1] (setting [3]) is 18.2 nM. Moreover, in experiment [2] (SHR), the “SHR mm Hg @ 10 mg/kg intravenous (blood pressure lowering)” value amounted to 50 mm Hg and the minimal effective dose came out at 1 mg/kg.
With `Fc1cccc(C(c2cccc(F)c2)C2CCN(Cc3ccc(OCc4ccccc4)cc3)CC2)c1` [Example 13], the Kb in experiment [1] (setting [3]) is 12.9 nM. In addition, in experiment [2] (SHR), the “SHR mm Hg @ 10 mg/kg intravenous (blood pressure lowering)” value is “inactive” and the “Threshold Dose mg/kg intravenous” value is “inactive”.
With `Clc1cccc(Cl)c1N=C1NCCN1` [Clonidine, reference compound], the “activity in the hypertensive rat assay (in words)” value in experiment [2] (rat, in vivo) is listed as “active”.
`COC(=O)C1=C(C)NC(C)=C(C(=O)OC)C1c1ccccc1[N+](=O)[O-]` [Nifedipine, reference compound]: in experiment [1], the “activity as vascular calcium antagonist (in words)” value was “active”.
As to `Clc1ccc(COc2ccc(CN3CCC(C(c4ccccc4)c4ccccc4)CC3)cc2)c(Cl)c1` [Example 17, 1-[[4-[(2,4-dichlorophenyl)methoxy]phenyl]methyl]-4-(diphenylmethyl)piperidine], the Kb in experiment [1] (setting [3]) was 40.7 nM. In addition, in experiment [2] (SHR), the “SHR mm Hg @ 10 mg/kg intravenous (blood pressure lowering)” value was “inactive” and the “Threshold Dose mg/kg intravenous” value is “inactive”.
For the compound `COc1ccc(CCN(C)CCCC(C#N)(c2ccc(OC)c(OC)c2)C(C)C)cc1OC` (stereo not shown) [Verapamil, reference compound], the “activity as vascular calcium antagonist (in words)” value in experiment [1] is on record as “active”.
Consider `CC(C)(C)NC(=O)c1cc(OCc2ccccc2)ccc1CN1CCC(C(c2ccccc2)c2ccccc2)CC1` [Example 4, 2-[[4-(diphenylmethyl)-1-piperidinyl]methyl]-5-(phenylmethoxy)-N-(1,1-dimethylethyl) benzamide], for which, in experiment [1] (setting [3]), the Kb is 186 nM. Moreover, in experiment [2] (SHR), the “SHR mm Hg @ 10 mg/kg intravenous (blood pressure lowering)” value came out at 29 mm Hg and the minimal effective dose was 0.3 mg/kg.
As for `COc1ccc(COc2ccc(CN3CCC(C(c4ccccc4)c4ccccc4)CC3)cc2)cc1` [Example 9, 4-(diphenylmethyl)-1-[[4-[(4-methoxyphenyl)methoxy]phenyl]methyl]piperidine], the Kb in experiment [1] (setting [3]) was 41.7 nM.
In the case of `COc1ccc(CN2CCC(C(c3ccccc3)c3ccccc3)CC2)cc1OCc1ccccc1` [Example 3, 4-(diphenylmethyl)-1-[[[4-methoxy-3-(phenylmethoxy)phenyl]methyl]piperidine, ethanedioate], the Kb in experiment [1] (setting [3]) is 25.7 nM. Further, in experiment [2] (SHR), the “SHR mm Hg @ 10 mg/kg intravenous (blood pressure lowering)” value was determined as 79 mm Hg and the minimal effective dose is 0.3 mg/kg.
With `Fc1ccc(C(c2ccc(F)cc2)C2CCN(Cc3ccc(OCc4ccc(Cl)cc4)cc3)CC2)cc1` [Example 11, 4-[bis(4-fluorophenyl)methyl]-1-[[4-[(4-chlorophenyl)methoxy]phenyl]methyl]piperidine, hydrobromide], the Kb in experiment [1] (setting [3]) was 8.71 nM. Moreover, in experiment [2] (SHR), the “SHR mm Hg @ 10 mg/kg intravenous (blood pressure lowering)” value came to 107 mm Hg and the minimal effective dose came out at 0.3 mg/kg.
As to `COc1ccc([C@@H]2Sc3ccccc3N(CCN(C)C)C(=O)[C@@H]2OC(C)=O)cc1` [Diltiazem, reference compound], the “activity as vascular calcium antagonist (in words)” value in experiment [1] is on record as “active”.
Take `NNc1nncc2ccccc12` [Apresoline, reference compound]: the “activity in the hypertensive rat assay (in words)” value in experiment [2] (rat, in vivo) is “active”.
`Oc1ccc(CN2CCC(C(c3ccccc3)c3ccccc3)CC2)cc1` [Example 5, 4-[[4-(diphenylmethyl)-1-piperidinyl]methyl]phenol]: the “Oral Activity (Blood Pressure Lowering)” value in experiment [2] (SHR) is “inactive”.
For the compound `Clc1ccc(COc2ccc(CN3CCC(C(c4ccccc4)c4ccccc4)CC3)cc2)cc1` [Example 14, 1-[[4-[(4-chlorophenyl)methoxy]phenyl]methyl]-4-(diphenylmethyl)piperidine], in experiment [1] (setting [3]), the Kb is 38.9 nM. Besides, the “Oral Activity (Blood Pressure Lowering)” value in experiment [2] (SHR) is listed as “active”.
As to `Clc1ccc(COc2ccc(CN3CCC(C(c4ccccc4)c4ccccc4)CC3)cc2)cc1` [Example 15, 1-[[4-[(4-chlorophenyl)methoxy]phenyl]methyl]-4-(diphenylmethyl)piperidine, 2-butenedioate], in experiment [2] (SHR), the “SHR mm Hg @ 10 mg/kg intravenous (blood pressure lowering)” value came to 89 mm Hg and the minimal effective dose stood at 1 mg/kg.
On to `C[C@](N)(Cc1ccc(O)c(O)c1)C(=O)O` [Aldomet, reference compound], for which the “activity in the hypertensive rat assay (in words)” value in experiment [2] (SHR) was “active”.
As to `Fc1ccccc1COc1ccc(CN2CCC(C(c3ccccc3)c3ccccc3)CC2)cc1` [Example 18, 4-(diphenylmethyl)-1-[[4-[(2-fluorophenyl)methoxy]phenyl]methyl]piperidine], in experiment [1] (setting [3]), the Kb is 70.8 nM. Further, in experiment [2] (SHR), the “SHR mm Hg @ 10 mg/kg intravenous (blood pressure lowering)” value is on record as 65 mm Hg, the minimal effective dose amounted to 0.3 mg/kg and the “Oral Activity (Blood Pressure Lowering)” value was “active”.
Turning to `Cc1ccc(COc2ccc(CN3CCC(C(c4ccccc4)c4ccccc4)CC3)cc2)cc1` [Example 7, 4-(diphenylmethyl)-1-[[4-[(4-methylphenyl)methoxy]phenyl]methyl] piperidine, 2-butendioate], in experiment [2] (SHR), the “SHR mm Hg @ 10 mg/kg intravenous (blood pressure lowering)” value was 56 mm Hg and the minimal effective dose stood at 1 mg/kg.
For `COc1cc(CN2CCC(C(c3ccccc3)c3ccccc3)CC2)ccc1OCc1ccccc1` [Example 21], in experiment [2] (SHR), the “SHR mm Hg @ 10 mg/kg intravenous (blood pressure lowering)” value worked out at 18 mm Hg, the minimal effective dose is 0.1 mg/kg and the “Oral Activity (Blood Pressure Lowering)” value is listed as “active”.
On to `C[C@H](CS)C(=O)N1CCC[C@H]1C(=O)O` [Captopril, reference compound], for which the “activity in the hypertensive rat assay (in words)” value in experiment [2] (SHR) is on record as “active”.
In the case of `Fc1ccc(C(c2ccc(F)cc2)C2CCN(Cc3ccc(OCc4ccccc4)cc3)CC2)cc1` [Example 10, [bis(4-fluorophenyl)methyl]-1-[[4-(phenylmethoxy)phenyl]methyl]piperidine], the Kb in experiment [1] (setting [3]) was 26.9 nM. In experiment [2] (SHR), the “SHR mm Hg @ 10 mg/kg intravenous (blood pressure lowering)” value is 67 mm Hg and the minimal effective dose was 0.3 mg/kg.
For `Clc1ccc(COc2ccc(CN3CCC(C(c4ccccc4)c4ccccc4)CC3)cc2)cc1Cl` [Example 16, 1-[[4-[(3,4-dichlorophenyl)methoxy]phenyl]methyl]-4-(diphenylmethyl)piperidine, 2-butenedioate], in experiment [2] (SHR), the “SHR mm Hg @ 10 mg/kg intravenous (blood pressure lowering)” value was determined as 81 mm Hg and the minimal effective dose worked out at 0.3 mg/kg.
With `Fc1ccc(C(c2ccc(F)cc2)C2CCN(Cc3ccc(OCc4ccc(Cl)cc4Cl)cc3)CC2)cc1` [Example 12, 4-[bis(4-fluorophenyl)methyl]-1-[[4-[(2,4-dichlorophenyl)methoxy]phenyl]methyl] piperidine, hydrochloride], the Kb in experiment [1] (setting [3]) was 30.2 nM. In experiment [2] (SHR), the “SHR mm Hg @ 10 mg/kg intravenous (blood pressure lowering)” value was determined as 79 mm Hg and the minimal effective dose is 0.1 mg/kg.
The like results for `COc1ccc(CN2CCC(C(c3ccccc3)c3ccccc3)CC2)cc1OCc1ccc(Cl)cc1` [Example 19] were, in that order, 457 nM, 75 mm Hg and 1 mg/kg.
On to `c1ccc(C(c2ccccc2)C2CCN(Cc3ccc(OCC4CCCCC4)cc3)CC2)cc1` [Example 20], for which the Kb in experiment [1] (setting [3]) was 44.7 nM. The “SHR mm Hg @ 10 mg/kg intravenous (blood pressure lowering)” value in experiment [2] (SHR) was “inactive”.
With `CCOC(=O)c1cc(OCc2ccccc2)ccc1CN1CCC(C(c2ccccc2)c2ccccc2)CC1` [Example 2, ethyl 2-[[4-(diphenylmethyl)-1-piperidinyl]methyl]-5-(phenylmethoxy)benzoate], in experiment [1] (setting [3]), the “pA2 (Ca++ Antagonism)” value was “inactive”. The “SHR mm Hg @ 10 mg/kg intravenous (blood pressure lowering)” value in experiment [2] (SHR) is “inactive”.
On to `c1ccc(COc2ccc(CN3CCC(C(c4ccccc4)c4ccccc4)CC3)cc2)cc1` [Example 6, 4-(diphenylmethyl)-1-[[4-(phenylmethoxy)phenyl]methyl] piperidine, hydrochloride], for which, in experiment [1] (setting [3]), the Kb was 10.7 nM. Moreover, in experiment [2] (SHR), the “SHR mm Hg @ 10 mg/kg intravenous (blood pressure lowering)” value is listed as 88 mm Hg and the minimal effective dose was 0.3 mg/kg.

For the origin of these results see patent US4650874A, “N-(aralkoxybenzyl)-4(benzhydryl) piperidines” (G. D. Searle & Co., priority 1984, dated 1987).
